Measured values as given in ChEMBL document CHEMBL1201862, “PubChem BioAssay data set” (2004).
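Cultured in 96-well plates, cells were exposed to test compound for 48 hours across five concentrations. The concentration for 50% growth inhibition is given as GI50.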 Activity calls are given as the source filed them. Cut-off read from the data, not from the text of the source: active = GI50 up to about 1.1 µM and inactive = higher.

Assays:
Assay in all cases: NCI tumour cell line growth inhibition, 48 h
786-0 = system: 786-0
LOX IMVI = system: LOX IMVI
K562 = system: K562
SK-MEL-28 = system: SK-MEL-28
Malme-3M = system: Malme-3M
SR = system: SR
HOP-92 = system: HOP-92
SK-OV-3 = system: SK-OV-3
OVCAR-5 = system: OVCAR-5
SK-MEL-2 = system: SK-MEL-2
SF-295 = system: SF-295
NCI-H460 = system: NCI-H460
CCRF-CEM = system: CCRF-CEM
SW-620 = system: SW-620
HOP-62 = system: HOP-62
NCI-H522 = system: NCI-H522

Row | SMILES | GI50 (786-0) | GI50 (LOX IMVI) | GI50 (K562) | GI50 (SK-MEL-28) | GI50 (Malme-3M) | GI50 (SR) | GI50 (HOP-92) | GI50 (SK-OV-3) | GI50 (OVCAR-5) | GI50 (SK-MEL-2) | GI50 (SF-295) | GI50 (NCI-H460) | GI50 (CCRF-CEM) | GI50 (SW-620) | GI50 (HOP-62) | GI50 (NCI-H522)
1 | CSC(=S)N/N=C/c1nccc2ccccc12 | 2.39 µM (inactive) | 1.49 µM (inactive) | 0.392 µM (active) | 2.19 µM (inactive) | 1.34 µM (inactive) | 0.291 µM (active) | 1.37 µM (inactive) | 6.79 µM (inactive) | 2.74 µM (inactive) | 1.07 µM (active) | 1.48 µM (inactive) | 1.09 µM (active) | 0.115 µM (active) | 0.631 µM (active) | 2.25 µM (inactive) | 0.34 µM (active)
2 | CCOc1ccc(/N=C\c2cc(OC)c(OC)c(OC)c2)cc1 | > 100 µM (inactive) | > 100 µM (inactive) | 52.5 µM (inactive) | > 100 µM (inactive) | > 100 µM (inactive) |  | > 100 µM (inactive) | > 100 µM (inactive) | > 100 µM (inactive) | > 100 µM (inactive) | > 100 µM (inactive) | > 100 µM (inactive) | > 100 µM (inactive) | 14.9 µM (inactive) | > 100 µM (inactive) | > 100 µM (inactive)
3 | C[C@]12CCC3[C@@H](CC[C@@H]4c5nonc5CC[C@]34C)C1CCC(=O)N2 (stereo not given in full) | > 100 µM (inactive) | > 100 µM (inactive) | > 100 µM (inactive) | > 100 µM (inactive) | > 100 µM (inactive) |  | 95.7 µM (inactive) | > 100 µM (inactive) | > 100 µM (inactive) | 0.356 µM (active) | > 100 µM (inactive) | > 100 µM (inactive) | > 100 µM (inactive) | > 100 µM (inactive) | > 100 µM (inactive) | 56.1 µM (inactive)
4 | [O-][S+]1Nc2cccc(C(F)(F)F)c2S1 (stereo not given) | 42.1 µM (inactive) | 21.1 µM (inactive) | 31.3 µM (inactive) | > 100 µM (inactive) | 51.2 µM (inactive) | 25.5 µM (inactive) | 35.6 µM (inactive) | > 100 µM (inactive) | 69.8 µM (inactive) | 24.3 µM (inactive) | 45.4 µM (inactive) | 40.9 µM (inactive) | 6.78 µM (inactive) | 9.91 µM (inactive) | 49.8 µM (inactive) | 28.1 µM (inactive)
5 | O=c1nc2sc3ccc4ccccc4c3n2nc1-c1ccccc1 | 18.7 µM (inactive) | 15.1 µM (inactive) | > 100 µM (inactive) | 35.6 µM (inactive) | 21.4 µM (inactive) | 71.6 µM (inactive) | 21.4 µM (inactive) | 36.1 µM (inactive) | > 100 µM (inactive) | > 100 µM (inactive) | 16.8 µM (inactive) | 22.1 µM (inactive) | > 100 µM (inactive) | 32.5 µM (inactive) | 26.7 µM (inactive) | 
6 | CC(C)N1CC2CC(CN(C(=O)c3ccccc3)C2)C1.[O-][Cl+3]([O-])([O-])O | > 100 µM (inactive) | > 100 µM (inactive) | > 100 µM (inactive) | > 100 µM (inactive) | > 100 µM (inactive) |  | > 100 µM (inactive) | > 100 µM (inactive) | > 100 µM (inactive) | > 100 µM (inactive) | > 100 µM (inactive) | > 100 µM (inactive) | > 100 µM (inactive) | > 100 µM (inactive) | > 100 µM (inactive) | > 100 µM (inactive)
7 | CC1=C(/C(C)=N/NC(=O)C(N)=O)Sc2ccccc2N1 | > 100 µM (inactive) | > 100 µM (inactive) | > 100 µM (inactive) | > 100 µM (inactive) | > 100 µM (inactive) |  | 95.1 µM (inactive) | > 100 µM (inactive) | > 100 µM (inactive) | > 100 µM (inactive) | > 100 µM (inactive) | > 100 µM (inactive) | > 100 µM (inactive) | > 100 µM (inactive) | > 100 µM (inactive) | > 100 µM (inactive)
8 | COc1cc(/C=C/C(=O)c2sc(Nc3ccccc3)nc2C)ccc1O | > 100 µM (inactive) | 48.5 µM (inactive) | 56.4 µM (inactive) | > 100 µM (inactive) | > 100 µM (inactive) |  | 35.6 µM (inactive) | > 100 µM (inactive) | > 100 µM (inactive) | > 100 µM (inactive) | 38.2 µM (inactive) | > 100 µM (inactive) | 88.5 µM (inactive) | > 100 µM (inactive) | 40.7 µM (inactive) | 42.4 µM (inactive)
9 | O=C(N/C(=C\c1ccc(F)cc1)c1nc2ccccc2[nH]1)c1ccccc1 | > 100 µM (inactive) | > 100 µM (inactive) | > 100 µM (inactive) | > 100 µM (inactive) | > 100 µM (inactive) |  | 97.1 µM (inactive) | > 100 µM (inactive) | > 100 µM (inactive) | > 100 µM (inactive) |  | > 100 µM (inactive) | > 100 µM (inactive) | > 100 µM (inactive) |  | > 100 µM (inactive)
